Measurements as given in patent publication US10086066B2, “Tissue targeted antigenic activation of the immune response to treat cancers” (Qu Biologics Inc., priority 2004, dated 2018).

Tested on: 4T1 mammary carcinoma cells
Test: Indomethacin efficacy study QB35, 4T1 mammary carcinoma (tumour volume, CD11b+ cells)
Format: in vivo, mouse (Balb/c)
Experimental: In an effort to examine the efficacy of combining antigenic composition treatment with indomethacin. Briefly, experiments were designed wherein there were 10 mice in each of 4 groups with all treatments beginning on day 4 after tumour inoculation. All mice (Balb/c female) received 50,000 4T1 mammary carcinoma cells subQ on day 0. Thereafter, the 4 groups were treated as follows: 1) Indomethacin daily (in drinking water)+PBS subQ every 2 days; 2) Indomethacin daily (in drinking water)+S. aureus SSI subQ every 2 days; 3) Control vehicle daily (in drinking water)+PBS subQ every 2 days; and 4) Control vehicle daily (in drinking water)+S. aureus SSI subQ every 2 days.

## COc1ccc2c(c1)c(CC(=O)O)c(C)n2C(=O)c1ccc(Cl)cc1 [Indomethacin]
Day 11, indomethacin daily in drinking water, with PBS or S. aureus SSI (FIG. 35)
  frequency of CD11b+ cells in the tumors relative to the control: significantly increased
Day 22 (FIG. 36)
  CD11b+ cells in the tumours: increase
